Source: ChEMBL document CHEMBL1201862, “PubChem BioAssay data set” (2004)
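Results reflect a 48-hour exposure of cells in 96-well plates to compound at five concentrations. GI50: concentration for 50% inhibition of growth.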 Activity calls are given as the source filed them. Rule as the data show it: active = GI50 up to about 1.1 µM and inactive = higher.

Key:
Assay in all cases: NCI-60 cell line screen, 48 h
SR = tested on: SR
SN12C = tested on: SN12C
OVCAR-4 = tested on: OVCAR-4
MCF7 = tested on: MCF7
SW-620 = tested on: SW-620
MOLT-4 = tested on: MOLT-4
SK-MEL-2 = tested on: SK-MEL-2
OVCAR-8 = tested on: OVCAR-8
OVCAR-5 = tested on: OVCAR-5
COLO 205 = tested on: COLO 205
SK-OV-3 = tested on: SK-OV-3
UACC-257 = tested on: UACC-257
SF-539 = tested on: SF-539
DU-145 = tested on: DU-145
UACC-62 = tested on: UACC-62
U-251 = tested on: U-251
Malme-3M = tested on: Malme-3M
SF-268 = tested on: SF-268
T47D = tested on: T47D
CCRF-CEM = tested on: CCRF-CEM

Measured: GI50

Nc1ncnc2c1ncn2CCCCC(=O)O
inactive: SR > 100 µM | SN12C > 100 µM | OVCAR-4 > 100 µM | MCF7 > 100 µM | SW-620 > 100 µM | MOLT-4 > 100 µM | SK-MEL-2 > 100 µM | OVCAR-8 > 100 µM | OVCAR-5 > 100 µM | COLO 205 > 100 µM | SK-OV-3 > 100 µM | UACC-257 > 100 µM | SF-539 > 100 µM | DU-145 > 100 µM | UACC-62 > 100 µM | U-251 > 100 µM | Malme-3M > 100 µM | SF-268 > 100 µM | T47D > 100 µM

COc1ccc2oc(=N)c(C(=O)Nc3ccccc3)cc2c1
inactive: SR 7.11 µM | SN12C 36.2 µM | OVCAR-4 45.6 µM | CCRF-CEM 7.23 µM | MCF7 12.8 µM | SW-620 22 µM | MOLT-4 13.8 µM | SK-MEL-2 17.2 µM | OVCAR-8 19.2 µM | OVCAR-5 36.7 µM | COLO 205 30.1 µM | SK-OV-3 10.9 µM | UACC-257 62.5 µM | SF-539 20.3 µM | DU-145 33.7 µM | U-251 19.1 µM | Malme-3M 15.9 µM | SF-268 20.6 µM | T47D 4.41 µM

COC1CCC(O)C(/C=C/[N+](=O)[O-])C1 (stereo not given)
inactive: SR 1.59 µM | SN12C 2.8 µM | OVCAR-4 14.8 µM | CCRF-CEM 2.69 µM | MCF7 2.88 µM | SW-620 3.33 µM | MOLT-4 2.18 µM | SK-MEL-2 10.2 µM | OVCAR-8 1.95 µM | OVCAR-5 9.1 µM | COLO 205 2.28 µM | SK-OV-3 10.1 µM | UACC-257 2.01 µM | SF-539 4.4 µM | DU-145 3.64 µM | UACC-62 6.24 µM | U-251 2.19 µM | SF-268 3.37 µM | T47D 11.3 µM

CC(=O)OC12c3ccccc3C(c3ccccc31)C1C(=O)N(Nc3ccccc3)C(=O)C12 (stereo not given)
inactive: SR > 100 µM | SN12C > 100 µM | OVCAR-4 > 100 µM | CCRF-CEM > 100 µM | MCF7 > 100 µM | SW-620 > 100 µM | MOLT-4 > 100 µM | OVCAR-8 > 100 µM | OVCAR-5 > 100 µM | COLO 205 > 100 µM | SK-OV-3 > 100 µM | UACC-257 > 100 µM | SF-539 > 100 µM | DU-145 > 100 µM | UACC-62 > 10 µM | U-251 > 100 µM | Malme-3M > 100 µM | SF-268 > 100 µM | T47D > 100 µM

[N-]=[N+]=NI1OC(=O)c2ccccc21
inactive: SR 38.7 µM | SN12C > 100 µM | OVCAR-4 > 100 µM | CCRF-CEM 37.9 µM | MCF7 93.5 µM | SW-620 65.3 µM | MOLT-4 66.8 µM | SK-MEL-2 > 100 µM | OVCAR-8 > 100 µM | OVCAR-5 66.5 µM | COLO 205 48.5 µM | SK-OV-3 > 100 µM | UACC-257 > 100 µM | SF-539 > 100 µM | DU-145 > 100 µM | UACC-62 > 100 µM | U-251 92.9 µM | SF-268 73.6 µM | T47D > 100 µM

O=c1ccn(C/C=C/c2ccccc2)c(=S)n1C/C=C/c1ccccc1
inactive: SR 8.24 µM | SN12C 31.3 µM | OVCAR-4 90.4 µM | CCRF-CEM 18.4 µM | MCF7 18.3 µM | SW-620 > 100 µM | MOLT-4 50.4 µM | SK-MEL-2 > 100 µM | OVCAR-8 > 100 µM | OVCAR-5 > 100 µM | COLO 205 54 µM | SK-OV-3 > 100 µM | UACC-257 32.8 µM | DU-145 > 100 µM | UACC-62 > 100 µM | U-251 77.1 µM | Malme-3M 89.1 µM | SF-268 > 100 µM | T47D 20.9 µM

Cc1c(C)c2c(c(N)c1C#N)C(=O)N(CCc1ccccc1)C2=O
inactive: SR 38.5 µM | SN12C > 100 µM | OVCAR-4 > 100 µM | CCRF-CEM > 100 µM | MCF7 > 100 µM | SW-620 > 100 µM | MOLT-4 72.6 µM | SK-MEL-2 > 100 µM | OVCAR-8 > 100 µM | OVCAR-5 > 100 µM | COLO 205 > 100 µM | UACC-257 > 100 µM | SF-539 > 100 µM | DU-145 > 100 µM | UACC-62 > 100 µM | U-251 > 100 µM | Malme-3M > 100 µM | SF-268 > 100 µM | T47D > 100 µM

CC(C)(C)OC(=O)C1C(=O)NC(=O)CC1C(COCc1ccccc1)OCc1ccccc1 (stereo not given)
inactive: SR 18 µM | SN12C > 10 µM | CCRF-CEM 25.5 µM | MCF7 19.9 µM | SW-620 25.4 µM | MOLT-4 17.5 µM | OVCAR-8 29.3 µM | OVCAR-5 12.2 µM | UACC-257 20.7 µM | SF-539 21.6 µM | DU-145 39.7 µM | U-251 20.5 µM | Malme-3M 19.8 µM | SF-268 26.7 µM | T47D 14.3 µM

C=CC(Cl)(CBr)CCC(Br)C(C)(C)Cl (stereo not given)
inactive: SN12C 21.3 µM | OVCAR-4 16.6 µM | CCRF-CEM 1.89 µM | MCF7 6.92 µM | SW-620 12.6 µM | MOLT-4 3.23 µM | SK-MEL-2 19.2 µM | OVCAR-8 15.6 µM | OVCAR-5 17.3 µM | COLO 205 15.9 µM | SK-OV-3 41.9 µM | UACC-257 14.3 µM | SF-539 16.9 µM | DU-145 19.7 µM | UACC-62 12.7 µM | U-251 14.4 µM | Malme-3M 18.7 µM | SF-268 20.8 µM | T47D 16.6 µM

N#Cc1nc(CCN2C(=O)c3ccccc3C2=O)oc1N
inactive: SR > 100 µM | SN12C > 100 µM | OVCAR-4 > 100 µM | CCRF-CEM > 100 µM | MCF7 > 100 µM | SW-620 > 100 µM | MOLT-4 > 100 µM | SK-MEL-2 > 100 µM | OVCAR-8 > 100 µM | OVCAR-5 > 100 µM | COLO 205 > 100 µM | SK-OV-3 > 100 µM | UACC-257 > 100 µM | SF-539 > 100 µM | DU-145 > 100 µM | U-251 > 100 µM | Malme-3M > 100 µM | SF-268 > 100 µM | T47D > 100 µM

CC1Cc2c(Br)nc(N)nc2NC1=O (stereo not given)
inactive: SR 86.3 µM | SN12C > 100 µM | OVCAR-4 > 100 µM | MCF7 > 100 µM | SW-620 > 100 µM | MOLT-4 > 100 µM | SK-MEL-2 > 100 µM | OVCAR-8 > 100 µM | OVCAR-5 > 100 µM | COLO 205 > 100 µM | SK-OV-3 > 100 µM | UACC-257 > 100 µM | SF-539 > 100 µM | DU-145 > 100 µM | UACC-62 > 100 µM | U-251 > 100 µM | Malme-3M > 100 µM | SF-268 > 100 µM | T47D > 100 µM

CN(C(=O)C12C3C4C1C1C2C3C41C(=O)O)C(C)(C)C (stereo not given)
inactive: SR > 100 µM | SN12C > 100 µM | OVCAR-4 > 100 µM | CCRF-CEM > 100 µM | MCF7 > 100 µM | SW-620 > 100 µM | MOLT-4 > 100 µM | SK-MEL-2 > 100 µM | OVCAR-8 > 100 µM | OVCAR-5 > 100 µM | COLO 205 > 100 µM | UACC-257 > 100 µM | SF-539 > 100 µM | DU-145 > 100 µM | UACC-62 > 100 µM | U-251 > 100 µM | SF-268 > 100 µM | T47D > 100 µM

O=c1c(C(c2cccnc2)c2c(O)oc3cc(O)ccc3c2=O)c(O)oc2cc(O)ccc12
inactive: SR > 100 µM | SN12C > 100 µM | MCF7 > 100 µM | SW-620 > 100 µM | MOLT-4 > 100 µM | SK-MEL-2 > 100 µM | OVCAR-8 > 100 µM | OVCAR-5 > 100 µM | COLO 205 > 100 µM | SK-OV-3 > 100 µM | UACC-257 > 100 µM | SF-539 > 100 µM | DU-145 > 100 µM | UACC-62 > 100 µM | U-251 > 100 µM | SF-268 > 100 µM | T47D > 100 µM

CCc1c2c(nc3ccc(O)cc13)-c1cc3c(c(=O)n1C2)COC(=O)[C@]3(O)CC [7-ETHYL-10-HYDROXYCAMPTOTHECIN]
active: SR < 0.001 µM | SN12C < 0.001 µM | OVCAR-4 0.00227 µM | CCRF-CEM < 0.001 µM | MCF7 0.01 µM | MOLT-4 < 0.001 µM | SK-MEL-2 0.0231 µM | OVCAR-5 0.00472 µM | COLO 205 0.0556 µM | UACC-257 0.013 µM | SF-539 < 0.001 µM | DU-145 < 0.001 µM | UACC-62 < 0.001 µM | U-251 < 0.001 µM | SF-268 < 0.001 µM | T47D < 0.001 µM

CC(C)OC(=O)Nc1cccc(Cl)c1 [CHLORPROPHAM]
inactive: SR > 100 µM | SN12C > 100 µM | OVCAR-4 > 100 µM | CCRF-CEM > 100 µM | MCF7 > 100 µM | SW-620 > 100 µM | MOLT-4 > 100 µM | SK-MEL-2 > 100 µM | OVCAR-8 > 100 µM | OVCAR-5 > 100 µM | COLO 205 > 100 µM | SK-OV-3 > 100 µM | UACC-257 > 100 µM | SF-539 > 100 µM | DU-145 > 100 µM | UACC-62 > 100 µM | U-251 87.1 µM | SF-268 > 100 µM | T47D 50.4 µM
